Test results from patent publication US9066947B2, “Indolyl-substituted pyrazino[1,2-b]isoquinolines for cancer treatment” (Everest Biosciences, Inc., priority 2009, dated 2015).

Columns and labels:
PC-3 tumors [1] = assay: PC-3 prostate cancer xenograft mouse model of tumor growth and metastasis; type: in vivo, athymic NMRI nude mice; conditions: for tumor growth, comparison of Etoposide and Substance X: tumors about 250 mm3, IV once every other day for 14 days, Etoposide 20 mg/kg, Substance X 40 mg/kg (FIG. 4)
Text: Athymic NMRI nude mice between 6-8 weeks old (Taconic; Bomholt, Denmark) were used. Prostate cancer xenograft mouse model was created by implanting hormone-independent PC3 tumor cells subcutaneously into athymic nude mice as previously described (Wegiel B, Bjartell A, Tuomela J, et al.: Multiple cellular mechanisms related to cyclin Al in prostate cancer invasion and metastasis. Journal of the National Cancer Institute 100: 10221036, 2008).
PC-3 cells were purchased from American Type Culture Collection (Manassas, V A) and cultured in RPMI-1640 supplemented with 10% Fetal Bovine Serum. PC-3 cells at 1×10^6/per mouse were used. The mice were divided into three groups (6 mice per group). The first group allowed tumors to grow between 170-400 mm^3 in size before starting the treatment. The second group allowed tumors to grow between 550-650 mm^3 in size before starting the treatment. The third group allowed tumors to grow between 700-800 mm^3 in size before starting the treatment. The tumor diameters were measured twice weekly using calipers. The tumor volumes were calculated using an equation of a*(b2/2) where a and b represent the length and width of the tumor, respectively.
The treatment of the compound of Example 1 (also referred to herein as “Substance X”) or PBS containing 5% DMSO (vehicle) as Control was started when tumors reached the desired size as described above. In the first experimental setting, Substance X was administered intravenously once every other day. In the second experimental setting, Substance X was administrated orally once every other day. Tumor growth was assessed periodically as described in Results. The mice were sacrificed after treatment by euthanization via isofluorene inhalation. Lymph node, liver, lung, spleen and femurs were removed from each mouse. Half of the tumor tissues were used for histology and immunohistochemical analysis. For histology analysis, tissues were fixed in 4% paraformaldehyde and embedded in paraffin. The sections were stained with hematoxylineosin (H&E) or imunohistochemical stained with antibodies and analyzed under an optical microscope. The other half of the tissues were used for protein analysis and thus were snapfrozen in liquid nitrogen. The body weights of the mice on the first and last day of the treatment were collected and compared. Tumor invasion and metastasis were examined in various tissues from the sacrificed mice.
For a comparison study, mice with tumors at 190-250 mm^3 in size were treated with the cytotoxic drug Etoposide (Sigma) at a dose of 20 mg/kg via IV injection once every other day. The tumor size was measured as described in the Results. Three mice were treated with Etoposide or the vehicle as Control. The mice were sacrificed and the tissues were collected as described above.

[2] = test system: PC-3 prostate cancer cells; assay: Annexin V-apoptosis assay; type: cell-based, human; conditions: 48 hours
Protocol: (§1) Hormone-independent and metastatic PC-3 prostate cancer cells were purchased from the American Type Culture Collection (Manassas, Va., USA) and cultured in RPMI-1640 supplemented with 10% fetal bovine serum. Etoposide was purchased from Sigma, Avastin from Roche.
Cells were treated with 50 uM and 100 uM compounds and Etoposide for 48 hours, harvested, washed with PBS and resuspended in binding buffer (0.01 M HEPES pH 7.4, 0.14 M NaCl, […] CaCl2) (BD Bioscience, san Jose, Calif., USA), stained with […] annexin V and 7-AAD (BD Bioscience). The cells were incubated for 15 min at room temperature in the dark, and the rate of apoptosis was measured by flow cytometry (Calibur, BD) and analyzed using FCS Express Professional software (De NoVo software, CA, USA).

[3] = test system: PC-3 prostate cancer cells; assay: Cell cycle analysis; type: cell-based, human
Protocol: as §1
Cells were harvested after the treatment, then fixed in ice-cold 70% EtOH. Cells then were washed with PBS and incubated in DNA staining buffer, containing 1 mg/ml sodium citrate (Sigma), 0.1 mg/ml propidium iodide (Sigma), 3 ul/ml TritonX-100, 0.02 mg/ml RNaseA (Sigma) for 30 min at 4° C. The cell cycle profiles were measured in a FACS Calibur cytofluorometer (BD) and analyzed using FCS Express Professional (De NoVo software, CA, USA) and Multicycle (Phoenix Flow Systems, Inc., CA, USA) softwares.

[4] = Basic toxicity study in healthy mice; type: in vivo; conditions: for cage-side observations (food consumption, daily activities, toxic effect) / histology of livers and kidney: 13 days
Protocol: (§2) For the assessment of toxicity of Substance X, healthy mice were treated with Substance X by intravenous injection at a dose of 100 mg/kg or 200 mg/kg once every other day for 13 days. Body weight of each mouse was measured periodically from Day 1 to Day 13 of the treatment. Cage-side observations including: mortality, moribundity, food consumption and activities were performed once every other day. Blood samples were taken on Day 1 and Day 13 for measurement of blood cell counts. To assess toxicity of Substance X on mice with tumors, mice bearing subcutaneous PC-3 tumors were treated with Substance X at a high dose of 200 mg/kg once every other day for 19 days. Body weight was measured and cage-side observations were performed once every other day. Lymph node, liver, lung, spleen and femurs were removed from each mouse and were examined. Toxicity of Substance X was also assessed in tumor-bearing mice treated with 80 mg/kg of Substance X daily as described above.

[5] = Safety in PC-3 tumor-bearing xenograft mice; type: in vivo; conditions: PC-3 tumor-bearing mice, 40 mg/kg daily for 30 days
Protocol: as §2
We then tested the high dose of Substance X in PC-3 xenograft mice, thereby mimicking its effect on prostate cancer patients. We generated mouse xenograft of human PC-3 tumors by subcutaneous implantation of tumor cells into nude mice. We further tested safety of the dose of 40 mg/kg which generated significant anti-tumor activity in the xenograft mouse model.

VEGF = assay: Immunohistochemical analysis of VEGF expression in PC-3 xenograft tumors; type: in vivo, human; conditions: versus Control mice (FIG. 5)
Protocol: (§3) FIG. 5: Effect of Substance X on Expression of VEGF and VEGF Receptor 2 Immunohistochemical analysis of VEGF and VEGF receptor 2 was performed in tumors from the Control mice and the mice treated with Substance X. The representative pictures are shown. Tumor sections (Control) or (Substance X) were stained with antibody against human VEGF and VEGF Receptor 2.
(§4) The treatment of the compound of Example 1 (also referred to herein as “Substance X”) or PBS containing 5% DMSO (vehicle) as Control was started when tumors reached the desired size as described above. In the first experimental setting, Substance X was administered intravenously once every other day. […] Tumor growth was assessed periodically as described in Results. […] The sections were stained with hematoxylineosin (H&E) or imunohistochemical stained with antibodies and analyzed under an optical microscope. […]
(§5) Immunohistochemistry on tumor tissues was performed as previously described (Wegiel B, Bjartell A, Ekberg J, Gadaleanu V, Brunhoff C and Persson J L: A role for cyan AI in mediating the autocrine expression of vascular endothelial growth factor in prostate cancer. Oncogene 24: 6385-6393, 2005) by using antibodies to human CD-31 (Dako, Goistrup, Denmark A/S). […] For analysis of tumor angiogenesis, tumor sections stained with antibody against CD3I were examined and quantified. […]

VEGF receptor 2 = assay: Immunohistochemical analysis of VEGF receptor 2 expression in PC-3 xenograft tumors; type: in vivo, human; conditions: versus Control mice (FIG. 5)
Protocol: as §3, §4, §5

CD31 = assay: Quantification of angiogenesis by CD31 immunohistochemistry in PC-3 xenograft tumors; type: in vivo, human; conditions: versus Control tumors (FIG. 6)
Protocol: B. Immunohistochemical analysis of tumors from the Control mice and mice treated with Substance X for the expression of CD31. Tumor sections (Control) or (Substance X) were stained with antibody against CD31. (B). Regions of high vascular density at centre or the edge areas within the tumors were examined. The number of CD31-positive pixels per microscopic field was recorded. At least two sections per tumor and three views per section were determined. The statistical T-test was performed and was two-sided and P value less than 0.05 was considered to be statistically significant, P value less than 0.01 is labelled as two asterisks.
Immunohistochemistry on tumor tissues was performed as previously described (Wegiel B, Bjartell A, Ekberg J, Gadaleanu V, Brunhoff C and Persson J L: A role for cyan AI in mediating the autocrine expression of vascular endothelial growth factor in prostate cancer. Oncogene 24: 6385-6393, 2005) by using antibodies to human CD-31 (Dako, Goistrup, Denmark A/S). Antirabbit peroxidase-conjugated secondary antibodies were applied. Diaminobenzidine colorimetric reagent solution (Dako) was used. […] For analysis of tumor angiogenesis, tumor sections stained with antibody against CD3I were examined and quantified. […] The number of CD31-positive pixels per microscopic field was recorded. At least two sections per tumor and three views per section were determined.

[6] = test system: PC-3 prostate cancer cells; assay: Cell proliferation assay (trypan blue viable cell count) and IC50 determination; type: cell-based, human; conditions: PC-3 cells
Protocol: All new synthesized compounds and Etoposide were first dissolved in 100% DMSO at initial concentration of 100 mM, and then diluted at final concentration of 200 uM in culture medium. Commercial form of Avastin (25 mg/ml) was diluted to appropriate concentrations in culture medium.
as §1
For cell counting a total of 6×10^4 cells at a density of 0.3×10^6/ml were seeded in 96-well plate. The cells were treated with compounds, Etoposide or Avastin as positive controls at 1 uM, 5 uM, 10 uM, 20 uM, 50 uM, 100 uM for 48 hours. For Avastin 5 uM, 20 uM and 50 uM concentrations were used. The cells were labeled with trypan blue and the viable cells were quantified.

PC-3 tumors [7] = assay: PC-3 prostate cancer xenograft mouse model of tumor growth and metastasis; type: in vivo, athymic NMRI nude mice; conditions: tumors 500-600 mm3 at start, 40 mg/kg intravenous injection, day 20 (FIG. 2)
[8] = healthy mice, 100 mg/kg i.v. once every other day

Compound: COc1cc([C@@H]2c3cc4c(cc3[C@@H](O[C@@H]3O[C@@H]5CO[C@@H](C)O[C@H]5[C@H](O)[C@H]3O)[C@H]3COC(=O)[C@H]23)OCO4)cc(OC)c1O [Etoposide, reference compound]
- tumor growth, comparison of Etoposide and Substance X (PC-3 tumors [1]): grew slowly
- Early apoptosis, % ([2]; 50 uM): 9.22%
- Late apoptosis/necrosis, % ([2]; 50 uM): 6.73%
- Total, % (apoptosis) ([2]; 50 uM): 15.95%
- Early apoptosis, % ([2]; 100 uM): 9.35%
- Late apoptosis/necrosis, % ([2]; 100 uM): 4.98%
- Total, % (apoptosis) ([2]; 100 uM): 14.33%
- G0/G1, % ([3]; 50 uM): 15.91%
- S + G2 + M, % ([3]; 50 uM): 84.09%
- G2/M phase blockage ([3]; 50 uM and 100 uM, analogue 3 statement at 100 uM): G2/M phase blockage
- G0/G1, % ([3]; 100 uM): 21.39%
- S + G2 + M, % ([3]; 100 uM): 78.61%

Compound: CN1CC(=O)N2[C@H](c3c[nH]c4ccccc34)c3cc4c(cc3C[C@H]2C1=O)OCO4 [Substance X, (5S,9aS)-5-(1H-Indol-3-yl)-8-methyl-7,8,9a,10-tetrahydro-5H-1,3-dioxa-5a,8-diaza-cyclopenta[b]anthracene-6,9-dione]
- cage-side observations (food consumption, daily activities, toxic effect) ([4]; 200 mg/kg once every other day): no abnormality on food consumption and daily activities, or any observable toxic effect
- histology of livers and kidney ([4]; 200 mg/kg once every other day): no abnormality in histology
- body weights ([4]; 200 mg/kg once every other day, 13 days (FIG. 1B)): steady throughout the study period
- cage-side observations (food consumption, daily activities, toxic effect) [4, 8]: no abnormality on food consumption and daily activities, or any observable toxic effect
- histology of livers and kidney [4, 8]: no abnormality in histology
- change in body weight ([4]; healthy mice, 100 mg/kg i.v. once every other day, 13 days (FIG. 1A)): no significant change in body weight
- body weights [5]: remained constant throughout the period of treatment
- cage-side observations (food consumption, daily activities, toxic effect) [5]: no abnormality on food consumption and/or daily activities, or any other observable toxic effect
- histology of livers and kidney [5]: no abnormality in histology
- tumor size after switch to oral administration (PC-3 tumors [1]; 40 mg/kg i.v. for 20 days, from day 21 40 mg/kg oral, versus continuous i.v.): slightly larger tumor size than the mice treated by continuous intravenous injection
- tumor growth (large and invasive tumors, longer treatment) (PC-3 tumors [1]; 40 mg/kg intravenous injection for 30 days): inhibited throughout the treatment period and the tumors shrank significantly at the end of the treatment
- infiltration of tumor cells into secondary sites (metastasis) (PC-3 tumors [1]; 40 mg/kg, end of study, histology and immunohistochemical analysis): no infiltration of tumor cells into secondary sites could be detected
- size of tumors in whole-tumor histology sections (PC-3 tumors [1]; VEGF receptor 2 stained sections, versus Control mice (FIG. 6A)): smaller than that from the Control mice
- oral bioavailability (PC-3 tumors [1]; inferred from tumor size after oral versus intravenous 40 mg/kg): orally bioavailable, yet the oral bioavailability is lower than intravenous injection
- tumor growth (PC-3 tumors [1]; tumors 190-240 mm3 at start, 20 mg/kg intravenously, 21 days): tumor shrank
- tumor growth, oral administration throughout (PC-3 tumors [1]; tumors 300-350 mm3 at start, 40 mg/kg oral (FIG. 3)): able to inhibit the tumor growth, although the effect was not as strong as intravenous injection
- tumor growth, comparison of Etoposide and Substance X (PC-3 tumors [1]): stronger inhibitory effect on tumors as compared to Etoposide
- expression of VEGF in tumors (VEGF): significantly down-regulated
- expression of VEGFR2 in tumors (VEGF receptor 2): significantly down-regulated
- CD31 expression and number of CD31-expressing vessels in tumors (CD31): statistically significant decrease
- IC50 ([6]; Homo sapiens, viable cells after 48 hours, read-out: IC50 for cell growth inhibition): 30 µM
- concentration from which statistically significant cell growth inhibition started ([6]; 48 hours): 5 µM
- tumor growth (large tumors) (PC-3 tumors [7]): did not grow but showed a slight decrease in size
